Results taken from paper PMC10470313, “Developing a peptide to disrupt cohesin head domain interactions” (iScience, 2023).
Several values for one entry are separate records, joined by “and”; a condition that tells them apart may be missing. Equal entries are not always repeated. Entries after “also recorded” stand apart in the source; their conditions may differ.

B1: Smc3 head domain (domain or fragment, S. cerevisiae)
chain: YIKRVIIKGFKTYRNETIIDNFSPHQNVIIGSNGSGKSNFFAAIRFVLSDDYSNLKREERQGLIHQGSGGSVMSASVEIVFHDPDHSMILPSGVLSRGDDEVTIRRTVGLKKDDYQLNDRNVTKGDIVRMLETAGFSMNNPYNIVPQGKIVALTNAKDKERLQLLEDVVGAKSFEVKLKASLKKMEETEQKKIQINKEMGELNESSKHPTSLVPRGNFKKFNERRKDLAERASELDESKDSIQDLIVKLKQQKVNAVDSTFQKVSENFEAVFERLVPRGTAKLIIHRKNDNANDHDESIDVDMDAESNESQNGKDSEIMYTGVSISVSFNSKQNEQLHVEQLSGGQKTVCAIALILAIQMVDPASFYLFDEIDAALDKQYRTAVATLLKELSKNAQFICTTFRTDMLQVADKFFRVKYENKISTVIEVNREEAIGFIRGSNKFAEV
notes: Smc3, S. cerevisiae, N-terminal part of the head domain, amino acids 2-204; 13 amino acids linker in place of the coiled coil and hinge; Smc3, S. cerevisiae, C-terminal part of the head domain, amino acids 1001-1230; also called Smc3hd; source: E. coli BL21, purified (Ni-NTA, twice)

Columns and labels:
[1] = tested on: yIO-001 strain yeast cells; assay: Peptide entry into yeast cells (epifluorescence microscopy); format: cell-based; details: 10 mM peptide, 1 h, 30°C, mid-log phase, FITC epifluorescence
Procedure: The formation of Smc3/CIP3 complexes supports our preliminary conclusion that CIP3 inhibits cohesin activity in cells. Aiming to improve the stability of the peptide in cells, we switched to using an in vitro synthesized peptide. This approach has been successfully used to inhibit protein-protein interactions in both yeast and mammalian cells.[26]^,[38]^,[39]^,[40]^,[41] […] We validated peptide entry into yeast by incubating a 26-amino acid control peptide (ContP), which was fused to the TAT, and a fluorescein isothiocyanate (FITC) fluorophore. Thereafter, 10 mM of the ContP was added to yIO-001 strain cells grown to mid-log phase at 30°C. The cells were incubated with the peptide for 1 h and analyzed by epifluorescence microscopy.
Supplementary Figure S3. Binding of CIP3-TAT to cohesin by microscale thermophoresis, Related to Figure 3. 10 µM CIP3-TAT was added to protein extracts from strain yAM-945 (Smc3-GFP). The formation of the CIP3-TAT and cohesin complex was analyzed by MST in binding mode. A. MST trace. B. Binding analysis.
Supplementary Figure S4. […]
3. […] The purified proteins were analyzed on gel, followed by coomassie staining. […]
Supplementary Figure S5. […] The entry of the peptide into the cells was analyzed by epifluorescence microscopy.
Supplementary Figure S6. […] The cell cycle stage of the cells, described in Fig. 4B, was determined by flow cytometry. […]

[2] = tested on: yeast cells (pGAL-CIP strains); assay: Yeast growth rate with galactose-induced peptide expression (OD600); format: cell-based, Saccharomyces cerevisiae; details: OD 600 nm every 120 min; for growth of cells overexpressing the peptide: SC-URA galactose medium, compared with control plasmid; for growth rate vs control, multiple linear regression coefficient B: logarithmic phase, galactose medium, representative experiment, vs control strain yIO1000
Description: We designed three cohesin-inhibiting peptides (CIPs, Table 1) to inhibit Smc1/Smc3 protein-protein interaction. CIP1 and CIP2 were derived from conserved regions in Smc3, while CIP3 was derived from a conserved region in Smc1 (Figure 1E). To explore the biological effect of the peptides on cohesin, we sought to overexpress them in cells. For that purpose, we constructed a centromeric plasmid—pME4 (CIP1), pME2 (CIP2), and pME3 (CIP3), in which the peptide coding sequence was inserted after an ATG codon and under the control of a GAL promoter. Cells were transformed with the plasmids and grown in an SC-URA medium. In addition, we transformed cells with a control plasmid (pIO014).
(§1) Strains yIO1000 (control) and yME-031 (pGAL-CIP1), yME-016 (pGAL-CIP2), and yME-019 (pGAL-CIP3) cells were diluted in SC-URA galactose medium, and their growth rate was measured by optical density at 600 nm every 120 min. Cohesin is essential for cell division, so we expected that inhibition of cohesin activity by expressing a CIP would affect the cell growth rate.
Figure 2 CIP3 causes cell growth delay Strains yIO1000 (control) and yME-031 (pGAL-CIP1), yME-016 (pGAL-CIP2), and yME-019 (pGAL-CIP3) cells were grown in a galactose-containing medium to induce peptide expression. Cell growth was monitored every 120 min to measure the optical density of the culture at 600 nm. The growth rate in the logarithmic growth phase was calculated. The results of a representative experiment are shown.

cohesin in yeast cells = assay: Preliminary analysis of biological effect; format: cell-based
Procedure: as §1
The CIP3 sequence is derived from the C-terminal region of Smc1. The 15 amino acid sequence is conserved, encoding part of a short loop and the beginning of an alpha helix located at the bottom of the head domain (Figures 1A–1C). […] We used the HPepDock 2.0 server[32]^,[33]^,[34]^,[35] to predict the docking site of CIP3 on Smc3. The coordinates of the Smc3 structure (PDB: 4ux3)[36] were entered as the receptor input and CIP3 as the sequence as the peptide input and the analysis was done using the default parameter. […] CIP3 may interfere with ATP binding to the Walker A site in Smc3. Alternatively, it may misplace the hydrolysis motif in Smc1 and inhibit that ATPase activity. It is important to note that dynamics models are required to understand the structural basis of the Smc3-CIP3 complex fully, as well as experimental validation of the model.

yeast cells = assay: Yeast growth with CIP3 expressed from T2A ribosome-skipping vector; format: cell-based, Saccharomyces cerevisiae; details: CIP3 followed by GFP in T2A vector, GAL promoter
Description: The weak effect of CIP3 expressed in cells may relate to several reasons, including low expression levels, low translation efficiency, or cellular instability of short mRNAs and peptides. We tried to increase cellular mRNA stability by using a plasmid containing the T2A ribosome-skipping sequence under GAL promoter control.[29]^,[30]^,[31] Two genes cloned in tandem and separated by a T2A linker were expressed as a single mRNA. The ribosome skips the T2A sequence during translation, resulting in two separate proteins (Figure S1A. Peptide expression from a plasmid containing T2A ribosome-skipping sequence, related to Figure 2). To test the system, we cloned green fluorescent protein (GFP) and mCherry in tandem, separated by the T2A sequence. Cells carrying the plasmids were grown in SC-URA with either noninducing raffinose or inducing galactose. […] Both GFP and mCherry proteins were detected by western blot analysis of extracts from these cells (Figure S1C. Peptide expression from a plasmid containing T2A ribosome-skipping sequence, related to Figure 2). […]

cohesin holocomplex = assay: ATPase assay of cohesin holocomplex (free Pi); format: biochemical, S. cerevisiae; details: 10 nM cohesin, 20 nM loader, dsDNA, 0.25 mM ATP, 20 mM TAT-CIP3 as printed, 30°C, absorbance 650 nm
Procedure: The formation of the Smc3-CIP3 complex likely affects the ATPase activity. To explore this possibility, we expressed and purified S. cerevisiae cohesin holocomplex and the loader from yeast cells[37] (Figure S4. Purification of cohesin holocomplex and loader, related to Figure 3), and we measured the ATPase rate of cohesin in the presence of cohesin, the loader DNA, and ATP, as previously described.[37] Cohesin was preincubated without or with CIP3, and the accumulation of free Pi was measured over 30 min. In the absence of CIP3, Pi accumulation was constant over time, indicating continuous ATP hydrolysis.
Cohesin and the Scc2-Scc4 loader were expressed in S. cerevisiae as described in[37] with the following modifications: Cells were resuspended in buffer A (50 mM Hepes-NaOH pH 7.5, 300 mM NaCl, 2 mM MgCl2, 20% (vol/vol) glycerol, 0.5 mM Tris(2-carboxyethyl)phosphine hydrochloride (TCEP), 0.5 mM Pefabloc (Sigma-Aldrich), and a protease inhibitor cocktail (Sigma-Aldrich) and lysed by seven continuous passes in EmulsiFlexby-C3 (Avastin) at 4°C. The lysate was clarified, and purifications were continuous, as described in.[37]
ATPase assay has been done with the piColorLock kit (Expedeon) according to the manufacturer manual. […] The reaction was incubated at 30°C for 20 minutes and the amount of free was measured for 30 min minutes by absorbance in 650 nm every 5 min […].

CIP3-TAT [3] = target: T1, CIP3-TAT (S. cerevisiae | HIV); assay: field-effect biosensing (FEB Agile R100); 500 nM peptide immobilised on a graphene sensor chip; purified Smc3 head domain as analyte in rising concentrations; PBS baseline; without ATP; Kd by Hill fit or from kon and koff at a single concentration; details: both partners purified
T1 construct: Smc1, S. cerevisiae, residues 1121-1135 (conserved region of the head domain); linker between the Smc1 stretch and the TAT stretch; 11-amino acid peptide from the HIV TAT protein, added for delivery into cells; The methods of the biosensing experiment call the immobilised peptide CIP3; also called TAT-CIP3; source: synthetic peptide (Fmoc solid-phase synthesis, purified by preparative RP-HPLC)
T1 peptide: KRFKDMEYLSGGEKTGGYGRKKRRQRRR

CIP3-TAT [4] = target: T1, CIP3-TAT; assay: field-effect biosensing (FEB Agile R100); 500 nM peptide immobilised on a graphene sensor chip; purified Smc3 head domain as analyte, incubated with ATP (10 mM) before the measurement; details: both partners purified

| Molecule | growth of cells overexpressing the peptide [2] | growth rate vs control, multiple linear regression coefficient B [2] | biological effect, preliminary analysis (cohesin in yeast cells) | other results |
| --- | --- | --- | --- | --- |
| FITC-SGYGRKKRRQRRR-GGGLNPYWMETFT [ContP, 26-amino acid control peptide fused to the TAT and a fluorescein isothiocyanate (FITC) fluorophore] | – | – | – | peptide entry into yeast cells [1]: emission from cells incubated with the ContP peptide |
| MIIGSNGSGKSN [CIP2, expressed from pME2] | no significant decrease in growth rate | −0.290 | do not have a detectable biological effect | – |
| MKQNEQLHVEQLSGGQKTV [CIP1, expressed from pME4] | no significant decrease in growth rate | 0.015 | do not have a detectable biological effect | – |
| MKRFKDMEYLSGGEKT [CIP3, expressed from pME3] | weak growth delay; also recorded: significant decrease in growth rate | −0.727 | – | growth inhibition compared to previous (non-T2A) experiment (yeast cells): the inhibition fold was not improved; Pi accumulation (ATPase activity) after 5 min (cohesin holocomplex): Pi accumulation dropped sharply, indicating that ATPase activity was inhibited |
| B1 | – | – | – | Kd (CIP3-TAT [3]): 53.9 nM and 56 nM; Kd (CIP3-TAT [4]): 544.2 ± 0.06 nM |
